Earlier results on 39 molecules are cited in Sander's compilation of Henry's law constants (doi:10.1016/s0045-6535(00)00505-1).

The data set in a line: Henry solubility constant Hcp at 298.15 K (mol/(m3 Pa)). The settings on record: reference: Staudinger and Roberts (2001); cited value.

Regarding `ClCC(Cl)(Cl)Cl` [1,1,1,2-tetrachloroethane], the “Henry solubility constant Hcp” value is 0.024. For the molecule `CC(Cl)(Cl)Cl` [1,1,1-trichloroethane], the “Henry solubility constant Hcp” value was 0.00059. For `ClCC(Cl)Cl` [1,1,2-trichloroethane], the “Henry solubility constant Hcp” value is 0.011.

In the case of `C=C(Cl)Cl` [1,1-dichloroethene], the “Henry solubility constant Hcp” value was 0.00034. For `ClCC(Cl)CCl` [1,2,3-trichloropropane], the “Henry solubility constant Hcp” value was 0.036. In the case of `CC(Cl)CCl` (centres undefined) [1,2-dichloropropane], the “Henry solubility constant Hcp” value was 0.0034. As for `Cc1ccccc1C` [1,2-dimethylbenzene], the “Henry solubility constant Hcp” value is 0.002. On to `Cc1cccc(C)c1` [1,3-dimethylbenzene], for which the “Henry solubility constant Hcp” value was 0.0014.

Consider `Cc1ccc(C)cc1` [1,4-dimethylbenzene], for which the “Henry solubility constant Hcp” value was 0.0013. As for `CCCCO[N+](=O)[O-]` [1-butyl nitrate], the “Henry solubility constant Hcp” value is 0.0088.

Regarding `CC(=O)c1ccccc1` [1-phenylethanone], the “Henry solubility constant Hcp” value was 1.1.

Regarding `CC(=O)C(=O)O` [2-oxopropanoic acid], the “Henry solubility constant Hcp” value was 3000. For the molecule `CCCC(C)O[N+](=O)[O-]` (centres undefined) [2-pentyl nitrate], the “Henry solubility constant Hcp” value was 0.0037. Turning to `CC(C)c1ccccc1` [(2-propyl)-benzene], the “Henry solubility constant Hcp” value is 0.0012. Consider `O=Cc1ccccc1` [benzaldehyde], for which the “Henry solubility constant Hcp” value was 0.38. As for `c1ccccc1` [benzene], the “Henry solubility constant Hcp” value is 0.0017. For the molecule `ClC(Cl)Br` [bromodichloromethane], the “Henry solubility constant Hcp” value was 0.004. In the case of `CBr` [bromomethane], the “Henry solubility constant Hcp” value was 0.0017. As to `Clc1ccccc1` [chlorobenzene], the “Henry solubility constant Hcp” value was 0.0027. Take `CCCl` [chloroethane]: the “Henry solubility constant Hcp” value was 0.00084. Take `C=CCl` [chloroethene]: the “Henry solubility constant Hcp” value is 0.00039.

Regarding `ClC(Br)Br` [dibromochloromethane], the “Henry solubility constant Hcp” value is 0.0086.

For the molecule `FC(F)(Cl)Cl` [dichlorodifluoromethane], the “Henry solubility constant Hcp” value was 3.1e-05. As to `ClCCl` [dichloromethane], the “Henry solubility constant Hcp” value was 0.0036. Turning to `CSC` [dimethyl sulfide], the “Henry solubility constant Hcp” value was 0.0053. On to `CC#N` [ethanenitrile], for which the “Henry solubility constant Hcp” value was 0.51. Consider `CC(=O)OO` [ethanoic peroxyacid], for which the “Henry solubility constant Hcp” value was 7.3. As to `CCc1ccccc1` [ethylbenzene], the “Henry solubility constant Hcp” value is 0.0013. As to `OCOO` [hydroxymethyl hydroperoxide], the “Henry solubility constant Hcp” value is 16000. For `CI` [iodomethane], the “Henry solubility constant Hcp” value is 0.002. Turning to `CS` [methanethiol], the “Henry solubility constant Hcp” value was 0.0028. Take `COO` [methyl hydroperoxide]: the “Henry solubility constant Hcp” value is 3.1. Take `Cc1ccccc1` [methylbenzene]: the “Henry solubility constant Hcp” value is 0.0015. For the molecule `CCCCC(=O)O` [pentanoic acid], the “Henry solubility constant Hcp” value is 23. `CC(C)=O` [propanone]: the “Henry solubility constant Hcp” value is 0.28. For the molecule `ClC(Cl)=C(Cl)Cl` [tetrachloroethene], the “Henry solubility constant Hcp” value is 0.00059. `ClC(Cl)(Cl)Cl` [tetrachloromethane]: the “Henry solubility constant Hcp” value is 0.00034. Take `BrC(Br)Br` [tribromomethane]: the “Henry solubility constant Hcp” value is 0.017.

As to `ClC=C(Cl)Cl` [trichloroethene], the “Henry solubility constant Hcp” value is 0.001.
